The values below are quoted from earlier work in article PMC9546217, “Exploring novel nitrofuranyl sulfonohydrazides as anti‐Leishmania and anti‐cancer agents: Synthesis, in vitro efficacy and hit identification” (Chemical Biology & Drug Design, 2022).

The structures appear in SMILES notation.

Parameters in all cases: method as in Alsaeedi et al., [2015]
Holding throughout (conditions): diffusion method; ref Alsaeedi et al., [2015]; cited from earlier work

In data set [1] the test system is Staphylococcus aureus (ATCC 25923).
Data set [2] deals with Bacillus subtilis (ATCC 6633).
Data set [3] concerns Salmonella susi (ATTC 13070).

As to `Cc1ccc(S(=O)(=O)N/N=C/c2ccc([N+](=O)[O-])o2)cc1` [2c, (E)-4-Methyl-N'-[(5-nitrofuran-2-yl)methylene]benzenesulfonohydrazide], the “antimicrobial activity (inhibition zone)” value in data set [1] and in data set [2] was “no activity” throughout. Moreover, the inhibition zone in data set [3] was 20 mm.
